Reference: the supplement of paper PMC10307832

Experiments:
Assay in all cases: relative viability (nuclei count vs DMSO), 5 days (fraction); higher = more cells survive
LOU-NH91 = system: LOU-NH91
How it was run: (§1)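 One day after seeding in 1536-well plates, lung cancer cell lines were dosed by pin tool. Dosing was either single-drug or a fixed anchor-drug dose plus five library-drug doses (not always all listed) in √10 steps. After 5 days, nuclei were stained in one fix-and-stain step and counted on 4× images, and relative viability is the nuclei count of treated wells over that of vehicle wells, given as the median of duplicate plates.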

A-427 = system: A-427
How it was run: as §1

H3255 = system: H3255
How it was run: as §1

NCI-H441 = system: NCI-H441
How it was run: as §1

ChaGo-K-1 = system: ChaGo-K-1
How it was run: as §1

NCI-H1755 = system: NCI-H1755
How it was run: as §1

LK-2 = system: LK-2
How it was run: as §1

HCC-366 = system: HCC-366
How it was run: as §1

NCI-H2170 = system: NCI-H2170
How it was run: as §1

SK-MES-1 = system: SK-MES-1
How it was run: as §1

EKVX = system: EKVX
How it was run: as §1

NCI-H1734 = system: NCI-H1734
How it was run: as §1

NCI-H1975 = system: NCI-H1975
How it was run: as §1

EMC-BAC-2 = system: EMC-BAC-2
How it was run: as §1

NCI-H596 = system: NCI-H596
How it was run: as §1

NCI-H520 = system: NCI-H520
How it was run: as §1

COR-L 105 = system: COR-L 105
How it was run: as §1

NCI-H23 = system: NCI-H23
How it was run: as §1

NCI-H1666 = system: NCI-H1666
How it was run: as §1

PC-3 [JPC-3] = system: PC-3 [JPC-3]
How it was run: as §1

O=c1cc(N2CCOCC2)oc2c(-c3cccc4c3sc3ccccc34)cccc12 + CC1(C)CCC(c2ccc(Cl)cc2)=C(CN2CCN(c3ccc(C(=O)NS(=O)(=O)c4ccc(N[C@H](CCN5CCOCC5)CSc5ccccc5)c(S(=O)(=O)C(F)(F)F)c4)cc3)CC2)C1 [Navitoclax] (partner 0.5 µM)
relative viability (LOU-NH91; first compound 0.01 µM): 0.637 | relative viability (LOU-NH91; first compound 0.03162 µM): 0.631 | relative viability (LOU-NH91; first compound 0.1 µM): 0.695 | relative viability (LOU-NH91; first compound 0.3162 µM): 0.747 | relative viability (LOU-NH91; first compound 1 µM): 0.689 | relative viability (A-427; first compound 0.01 µM): 0.937 | relative viability (A-427; first compound 0.03162 µM): 0.935 | relative viability (A-427; first compound 0.1 µM): 0.956 | relative viability (A-427; first compound 0.3162 µM): 0.866 | relative viability (A-427; first compound 1 µM): 0.959 | relative viability (H3255; first compound 0.01 µM): 0.557 | relative viability (H3255; first compound 0.03162 µM): 0.5 | relative viability (H3255; first compound 0.1 µM): 0.555 | relative viability (H3255; first compound 0.3162 µM): 0.54 | relative viability (H3255; first compound 1 µM): 0.527 | relative viability (NCI-H441; first compound 0.01 µM): 0.53 | relative viability (NCI-H441; first compound 0.03162 µM): 0.787 | relative viability (NCI-H441; first compound 0.1 µM): 1.59 | relative viability (NCI-H441; first compound 0.3162 µM): 0.738 | relative viability (NCI-H441; first compound 1 µM): 0.585 | relative viability (ChaGo-K-1; first compound 0.01 µM): 1.04 | relative viability (ChaGo-K-1; first compound 0.03162 µM): 0.927 | relative viability (ChaGo-K-1; first compound 0.1 µM): 0.729 | relative viability (ChaGo-K-1; first compound 0.3162 µM): 1.06 | relative viability (ChaGo-K-1; first compound 1 µM): 0.971 | relative viability (NCI-H1755; first compound 0.01 µM): 0.983 | relative viability (NCI-H1755; first compound 0.03162 µM): 0.949 | relative viability (NCI-H1755; first compound 0.1 µM): 1.02 | relative viability (NCI-H1755; first compound 0.3162 µM): 0.972 | relative viability (NCI-H1755; first compound 1 µM): 0.999 | relative viability (LK-2; first compound 0.01 µM): 0.882 | relative viability (LK-2; first compound 0.03162 µM): 0.886 | relative viability (LK-2; first compound 0.1 µM): 0.896 | relative viability (LK-2; first compound 0.3162 µM): 0.874 | relative viability (LK-2; first compound 1 µM): 1.07 | relative viability (HCC-366; first compound 0.01 µM): 1.11 | relative viability (HCC-366; first compound 0.03162 µM): 1.1 | relative viability (HCC-366; first compound 0.1 µM): 1.08 | relative viability (HCC-366; first compound 0.3162 µM): 1 | relative viability (HCC-366; first compound 1 µM): 1.04 | relative viability (NCI-H2170; first compound 0.01 µM): 0.69 | relative viability (NCI-H2170; first compound 0.03162 µM): 0.741 | relative viability (NCI-H2170; first compound 0.1 µM): 0.599 | relative viability (NCI-H2170; first compound 0.3162 µM): 0.62 | relative viability (NCI-H2170; first compound 1 µM): 0.605 | relative viability (SK-MES-1; first compound 0.01 µM): 1.28 | relative viability (SK-MES-1; first compound 0.03162 µM): 1.26 | relative viability (SK-MES-1; first compound 0.1 µM): 1.43 | relative viability (SK-MES-1; first compound 0.3162 µM): 1.26 | relative viability (SK-MES-1; first compound 1 µM): 1.13 | relative viability (EKVX; first compound 0.01 µM): 1.02 | relative viability (EKVX; first compound 0.03162 µM): 0.903 | relative viability (EKVX; first compound 0.1 µM): 0.991 | relative viability (EKVX; first compound 0.3162 µM): 0.956 | relative viability (EKVX; first compound 1 µM): 0.871 | relative viability (NCI-H1734; first compound 0.01 µM): 0.921 | relative viability (NCI-H1734; first compound 0.03162 µM): 0.807 | relative viability (NCI-H1734; first compound 0.1 µM): 0.835 | relative viability (NCI-H1734; first compound 0.3162 µM): 0.708 | relative viability (NCI-H1734; first compound 1 µM): 0.851 | relative viability (NCI-H1975; first compound 0.01 µM): 1.02 | relative viability (NCI-H1975; first compound 0.03162 µM): 1.13 | relative viability (NCI-H1975; first compound 0.1 µM): 1.1 | relative viability (NCI-H1975; first compound 0.3162 µM): 0.985 | relative viability (NCI-H1975; first compound 1 µM): 0.994 | relative viability (EMC-BAC-2; first compound 0.01 µM): 1.09 | relative viability (EMC-BAC-2; first compound 0.03162 µM): 1.13 | relative viability (EMC-BAC-2; first compound 0.1 µM): 1.18 | relative viability (EMC-BAC-2; first compound 0.3162 µM): 1.16 | relative viability (EMC-BAC-2; first compound 1 µM): 1.17 | relative viability (NCI-H596; first compound 0.01 µM): 0.928 | relative viability (NCI-H596; first compound 0.03162 µM): 0.945 | relative viability (NCI-H596; first compound 0.1 µM): 0.841 | relative viability (NCI-H596; first compound 0.3162 µM): 0.967 | relative viability (NCI-H596; first compound 1 µM): 1.17 | relative viability (NCI-H520; first compound 0.01 µM): 1.11 | relative viability (NCI-H520; first compound 0.03162 µM): 1.14 | relative viability (NCI-H520; first compound 0.1 µM): 1.18 | relative viability (NCI-H520; first compound 0.3162 µM): 1.05 | relative viability (NCI-H520; first compound 1 µM): 1.22 | relative viability (COR-L 105; first compound 0.01 µM): 0.91 | relative viability (COR-L 105; first compound 0.03162 µM): 0.817 | relative viability (COR-L 105; first compound 0.1 µM): 0.79 | relative viability (COR-L 105; first compound 0.3162 µM): 0.73 | relative viability (COR-L 105; first compound 1 µM): 0.676 | relative viability (NCI-H23; first compound 0.01 µM): 0.981 | relative viability (NCI-H23; first compound 0.03162 µM): 0.846 | relative viability (NCI-H23; first compound 0.3162 µM): 0.832 | relative viability (NCI-H23; first compound 1 µM): 0.777 | relative viability (NCI-H1666; first compound 0.01 µM): 0.941 | relative viability (NCI-H1666; first compound 0.03162 µM): 0.899 | relative viability (NCI-H1666; first compound 0.1 µM): 0.819 | relative viability (NCI-H1666; first compound 0.3162 µM): 0.798 | relative viability (NCI-H1666; first compound 1 µM): 0.895 | relative viability (PC-3 [JPC-3]; first compound 0.01 µM): 0.824 | relative viability (PC-3 [JPC-3]; first compound 0.03162 µM): 0.784 | relative viability (PC-3 [JPC-3]; first compound 0.1 µM): 0.795 | relative viability (PC-3 [JPC-3]; first compound 0.3162 µM): 0.783 | relative viability (PC-3 [JPC-3]; first compound 1 µM): 0.777
